Earlier results as cited in patent US20090023693A1, “NEW DROSPIRENONE/17BETA-ESTRADIOL REGIMEN, PHARMACEUTICAL COMBINATION PRODUCT AND KIT FOR PERFORMING THIS REGIMEN” (priority 2007, published 2009).

What was measured:
[1] = biological target: T1, mineralocorticoid receptor (Homo sapiens, UniProt P08235); settings: compared with aldosterone
T1 sequence (P08235 1-984): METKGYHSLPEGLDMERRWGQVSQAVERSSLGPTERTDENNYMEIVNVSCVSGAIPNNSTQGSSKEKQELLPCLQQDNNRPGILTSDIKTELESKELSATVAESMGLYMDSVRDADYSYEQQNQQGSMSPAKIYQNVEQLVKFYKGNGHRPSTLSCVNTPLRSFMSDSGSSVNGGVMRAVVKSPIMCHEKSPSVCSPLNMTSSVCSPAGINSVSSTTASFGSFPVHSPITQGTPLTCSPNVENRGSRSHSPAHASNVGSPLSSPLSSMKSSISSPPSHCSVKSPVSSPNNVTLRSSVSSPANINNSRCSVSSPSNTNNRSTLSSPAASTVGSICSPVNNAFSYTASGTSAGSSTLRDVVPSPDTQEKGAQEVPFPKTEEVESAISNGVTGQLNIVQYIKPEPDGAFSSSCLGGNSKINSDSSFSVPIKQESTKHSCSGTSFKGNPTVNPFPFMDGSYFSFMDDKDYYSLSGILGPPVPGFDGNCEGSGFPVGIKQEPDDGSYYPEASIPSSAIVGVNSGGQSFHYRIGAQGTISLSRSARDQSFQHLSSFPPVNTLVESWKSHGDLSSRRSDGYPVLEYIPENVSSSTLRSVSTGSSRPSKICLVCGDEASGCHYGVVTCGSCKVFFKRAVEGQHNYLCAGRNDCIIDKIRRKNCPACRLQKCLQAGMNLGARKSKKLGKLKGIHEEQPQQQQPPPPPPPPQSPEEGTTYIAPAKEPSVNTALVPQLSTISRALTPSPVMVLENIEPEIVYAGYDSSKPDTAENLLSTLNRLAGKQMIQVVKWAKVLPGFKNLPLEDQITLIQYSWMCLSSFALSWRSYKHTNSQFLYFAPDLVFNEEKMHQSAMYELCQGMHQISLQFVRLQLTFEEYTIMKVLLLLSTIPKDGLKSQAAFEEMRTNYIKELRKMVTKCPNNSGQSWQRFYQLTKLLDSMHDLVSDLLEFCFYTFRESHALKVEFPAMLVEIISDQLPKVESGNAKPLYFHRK

[2] = oral vs transdermal

**Q.** Which results are given for `C[C@]12CCC(=O)C=C1[C@@H]1C[C@@H]1[C@H]1[C@@H]3[C@@H]4C[C@@H]4[C@@]4(CCC(=O)O4)[C@@]3(C)CC[C@@H]12` [drospirenone, Drospirenone]?
**A.** blood pressure (hypertensive women): lowered; salt and water retention (in vivo): reduced; affinity for the mineralocorticoid receptor relative to aldosterone [1]: about five times that of aldosterone; bioavailabilities after oral and transdermal administration [2]: roughly the same
